Experimental data reported in article PMC11033320, “Activation of p53 signaling and regression of breast and prostate carcinoma cells by spirooxindole-benzimidazole small molecules” (Frontiers in Pharmacology, 2024).

What was measured:
EKVX = assay: NCI anticancer screening, Non-Small Cell Lung Cancer EKVX; type: cell-based; conditions: Homo sapiens, read-out: % Growth Inhibition (GI %)
Outline: (§1)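 Organic compound submitted to DTP and processed by the standard NCI-60 screen of human tumour cell lines.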

SK-MEL-5 = assay: NCI anticancer screening, Melanoma SK-MEL-5; type: cell-based; conditions: Homo sapiens; SK-MEL-5, 10 μM; read-out: % Growth Inhibition (GI %)
Outline: as §1

NCI/ADR-RES = assay: NCI anticancer screening, Ovarian Cancer NCI/ADR-RES; type: cell-based; conditions: Homo sapiens, read-out: % Growth Inhibition (GI %)
Outline: as §1

K-562 = assay: NCI anticancer screening, Leukemia K-562; type: cell-based; conditions: Homo sapiens, K562; K-562, 10 μM; read-out: % Growth Inhibition (GI %)
Outline: as §1

HOP-92 = assay: NCI anticancer screening, Non-Small Cell Lung Cancer HOP-92; type: cell-based; conditions: Homo sapiens; HOP-92, 10 μM; read-out: % Growth Inhibition (GI %)
Outline: as §1

SR = assay: NCI anticancer screening, Leukemia SR; type: cell-based; conditions: Homo sapiens, read-out: % Growth Inhibition (GI %)
Outline: as §1

NCI-H322M = assay: NCI anticancer screening, Non-Small Cell Lung Cancer NCI-H322M; type: cell-based; conditions: Homo sapiens, read-out: % Growth Inhibition (GI %)
Outline: as §1

HOP-62 = assay: NCI anticancer screening, Non-Small Cell Lung Cancer HOP-62; type: cell-based; conditions: Homo sapiens; HOP-62, 10 μM; read-out: % Growth Inhibition (GI %)
Outline: as §1

SF-539 = assay: NCI anticancer screening, CNS Cancer SF-539; type: cell-based; conditions: Homo sapiens; SF-539, 10 μM; read-out: % Growth Inhibition (GI %)
Outline: as §1

CAKI-1 = assay: NCI anticancer screening, Renal Cancer CAKI-1; type: cell-based; conditions: Homo sapiens; CAKI-1, 10 μM; read-out: % Growth Inhibition (GI %)
Outline: as §1

PC-3 cells = assay: MTT assay anticancer activity, PC-3; type: cell-based; conditions: Homo sapiens, PC-3, 5 µM, mean ± SEM, read-out: growth inhibition percentage of PC-3
Description: MTT method was done as described above.

786-0 = assay: NCI anticancer screening, Renal Cancer 786-0; type: cell-based; conditions: Homo sapiens; 786-0, 10 μM; read-out: % Growth Inhibition (GI %)
Outline: as §1

MOLT-4 = assay: NCI anticancer screening, Leukemia MOLT-4; type: cell-based; conditions: Homo sapiens; MOLT-4, 10 μM; read-out: % Growth Inhibition (GI %)
Outline: as §1

HCC-2998 = assay: NCI anticancer screening, Colon Cancer HCC-2998; type: cell-based; conditions: Homo sapiens; HCC-2998, 10 μM; read-out: % Growth Inhibition (GI %)
Outline: as §1

SF-295 = assay: NCI anticancer screening, CNS Cancer SF-295; type: cell-based; conditions: Homo sapiens; SF-295, 10 μM; read-out: % Growth Inhibition (GI %)
Outline: as §1

NCI-H522 = assay: NCI anticancer screening, Non-Small Cell Lung Cancer NCI-H522; type: cell-based; conditions: Homo sapiens; NCI-H522, 10 μM; read-out: % Growth Inhibition (GI %)
Outline: as §1

OVCAR-4 = assay: NCI anticancer screening, Ovarian Cancer OVCAR-4; type: cell-based; conditions: Homo sapiens; OVCAR-4, 10 μM; read-out: % Growth Inhibition (GI %)
Outline: as §1

SN12C = assay: NCI anticancer screening, Renal Cancer SN12C; type: cell-based; conditions: Homo sapiens, read-out: % Growth Inhibition (GI %)
Outline: as §1

OVCAR-8 = assay: NCI anticancer screening, Ovarian Cancer OVCAR-8; type: cell-based; conditions: Homo sapiens; OVCAR-8, 10 μM; read-out: % Growth Inhibition (GI %)
Outline: as §1

HS 578T = assay: NCI anticancer screening, Breast Cancer HS 578T; type: cell-based; conditions: Homo sapiens, read-out: % Growth Inhibition (GI %)
Outline: as §1

ACHN = assay: NCI anticancer screening, Renal Cancer ACHN; type: cell-based; conditions: Homo sapiens, read-out: % Growth Inhibition (GI %)
Outline: as §1

A549/ATCC = assay: NCI anticancer screening, Non-Small Cell Lung Cancer A549/ATCC; type: cell-based; conditions: Homo sapiens, read-out: % Growth Inhibition (GI %)
Outline: as §1

CCRF-CEM = assay: NCI anticancer screening, Leukemia CCRF-CEM; type: cell-based; conditions: Homo sapiens, read-out: % Growth Inhibition (GI %)
Outline: as §1

RXF 393 = assay: NCI anticancer screening, Renal Cancer RXF 393; type: cell-based; conditions: Homo sapiens; RXF 393, 10 μM; read-out: % Growth Inhibition (GI %)
Outline: as §1

HCT-116 = assay: NCI anticancer screening, Colon Cancer HCT-116; type: cell-based; conditions: Homo sapiens; HCT-116, 10 μM; read-out: % Growth Inhibition (GI %)
Outline: as §1

HL-60(TB) = assay: NCI anticancer screening, Leukemia HL-60(TB); type: cell-based; conditions: Homo sapiens, read-out: % Growth Inhibition (GI %)
Outline: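 The compound went through the Developmental Therapeutics Program's routine 60-cell-line human tumor screen for organic molecules.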

SW-620 = assay: NCI anticancer screening, Colon Cancer SW-620; type: cell-based; conditions: Homo sapiens; SW-620, 10 μM; read-out: % Growth Inhibition (GI %)
Outline: as §1

SNB-19 = assay: NCI anticancer screening, CNS Cancer SNB-19; type: cell-based; conditions: Homo sapiens; SNB-19, 10 μM; read-out: % Growth Inhibition (GI %)
Outline: as §1

TK-10 = assay: NCI anticancer screening, Renal Cancer TK-10; type: cell-based; conditions: Homo sapiens; TK-10, 10 μM; read-out: % Growth Inhibition (GI %)
Outline: as §1

T-47D = assay: NCI anticancer screening, Breast Cancer T-47D; type: cell-based; conditions: Homo sapiens, T47D, read-out: % Growth Inhibition (GI %)
Outline: as §1

DU-145 = assay: NCI anticancer screening, DU-145; type: cell-based; conditions: Homo sapiens; DU-145, 10 μM; read-out: % Growth Inhibition (GI %)
Outline: as §1

SK-MEL-2 = assay: NCI anticancer screening, Melanoma SK-MEL-2; type: cell-based; conditions: Homo sapiens; SK-MEL-2, 10 μM; read-out: % Growth Inhibition (GI %)
Outline: as §1

MDA-MB 231 cells = conditions: for inhibition: 5 µM
Description: Anticancer effect of the above-mentioned compounds was assayed using three human cancer cell lines. Triple negative breast cancer cell line (MDA-MB 231) and prostate cancer cell line (PC3) were cultured in DMEM (Lonza, USA) supplemented with 10% FBS. All cancer cells (4x10^3 cells/well) were seeded in sterile 96-well plates. After 24h, serial concentrations of the tested compounds were incubated with three cancer cell lines for 72 h at 37 °C in 5% CO2 incubator. […] The half maximal inhibitory concentration (IC50) values were calculated using the Graphpad Instat software.

LOX IMVI = assay: NCI anticancer screening, Melanoma LOX IMVI; type: cell-based; conditions: Homo sapiens, read-out: % Growth Inhibition (GI %)
Outline: as §1

SNB-75 = assay: NCI anticancer screening, CNS Cancer SNB-75; type: cell-based; conditions: Homo sapiens; SNB-75, 10 μM; read-out: % Growth Inhibition (GI %)
Outline: as §1

MALME-3M = assay: NCI anticancer screening, Melanoma MALME-3M; type: cell-based; conditions: Homo sapiens, read-out: % Growth Inhibition (GI %)
Outline: as §1

SK-MEL-28 = assay: NCI anticancer screening, Melanoma SK-MEL-28; type: cell-based; conditions: Homo sapiens; SK-MEL-28, 10 μM; read-out: % Growth Inhibition (GI %)
Outline: as §1

U251 = assay: NCI anticancer screening, CNS Cancer U251; type: cell-based; conditions: Homo sapiens, U-251; U251, 10 μM; read-out: % Growth Inhibition (GI %)
Outline: as §1

Row | Compound | inhibition at 10 µM (EKVX) | inhibition at 10 µM (SK-MEL-5) | inhibition at 10 µM (NCI/ADR-RES) | inhibition at 10 µM (K-562) | inhibition at 10 µM (HOP-92) | inhibition at 10 µM (SR) | inhibition at 10 µM (NCI-H322M) | inhibition at 10 µM (HOP-62) | inhibition at 10 µM (SF-539) | inhibition at 10 µM (CAKI-1) | inhibition at 5 µM (PC-3 cells) | inhibition at 10 µM (786-0) | inhibition at 10 µM (MOLT-4) | inhibition at 10 µM (HCC-2998) | inhibition at 10 µM (SF-295) | inhibition at 10 µM (NCI-H522) | inhibition at 10 µM (OVCAR-4) | inhibition at 10 µM (SN12C) | inhibition at 10 µM (OVCAR-8) | inhibition at 10 µM (HS 578T) | also measured
1 | O=C(c1nc2ccccc2[nH]1)[C@H]1[C@H](c2ccc(Cl)cc2)C2CSCN2[C@]12C(=O)Nc1ccccc12 (stereo partly drawn) [Compound 6b, (3S,6′R)-6'-(1H-Benzo [d]imidazole-2-carbonyl)-7'-(4-chlorophenyl)-3′,6′,7′,7a′-tetrahydro-1′H-spiro [indoline-3.5′-pyrrolo [1,2-c]thiazol]-2-one] | 80.7% | 91.6% | 84.7% | 82.3% | 100% | 65.9% | 93.5% | 91.7% | 84.1% | 68.3% | 51.9% | 97.6% | 68.9% | 92.1% | 77.5% | 87.9% | 69.5% | 80.7% | 89.5% | 72.1% | inhibition at 10 µM (ACHN): 78.2%; inhibition at 10 µM (A549/ATCC): 81.4%; inhibition at 10 µM (CCRF-CEM): 86.3%; inhibition at 10 µM (RXF 393): 71.1%; inhibition at 10 µM (HCT-116): 60.5%; inhibition at 10 µM (HL-60(TB)): 98.3%; inhibition at 10 µM (SW-620): 77%; inhibition at 10 µM (SNB-19): 77.7%; inhibition at 10 µM (TK-10): 121%; inhibition at 10 µM (T-47D): 59.9%; inhibition at 10 µM (DU-145): 97.4%; inhibition at 10 µM (SK-MEL-2): 110%; IC50 (MDA-MB 231 cells): 4.76 ± 0.265 µM; inhibition (MDA-MB 231 cells): 52.7 ± 2.94%; inhibition at 10 µM (LOX IMVI): 76.6%; melting point: 210 to 212 °C; inhibition at 10 µM (SNB-75): 69.1%; inhibition at 10 µM (MALME-3M): 89.7%; inhibition at 10 µM (SK-MEL-28): 92.2%; inhibition at 10 µM (U251): 81.2%
2 | COc1cc([C@@H]2C3CSCN3[C@]3(C(=O)Nc4ccccc43)[C@H]2C(=O)c2nc3ccccc3[nH]2)cc(OC)c1OC (stereo partly drawn) [Compound 6i, (3S,6′R)-6'-(1H-Benzo [d]imidazole-2-carbonyl)-7'-(3,4,5-trimethoxyphenyl)-3′,6′,7′,7a′-tetrahydro-1′H-spiro [indoline-3.5′-pyrrolo [1,2-c]thiazol]-2-one] | 100% | 103% | 104% | 94.2% | 106% | 91.8% | 93.1% | 104% | 99.6% | 92.6% | 49.8 ± 3.12% | 99.4% | 97.4% | 108% | 95.2% | 88.3% | 100% | 99% | 99.3% | 102% | inhibition at 10 µM (ACHN): 107%; inhibition at 10 µM (A549/ATCC): 89.4%; inhibition at 10 µM (CCRF-CEM): 104%; inhibition at 10 µM (RXF 393): 109%; inhibition at 10 µM (HCT-116): 102%; inhibition at 10 µM (HL-60(TB)): 103%; inhibition at 10 µM (SW-620): 99.5%; inhibition at 10 µM (SNB-19): 100%; inhibition at 10 µM (TK-10): 104%; inhibition at 10 µM (T-47D): 102%; inhibition at 10 µM (DU-145): 111%; inhibition at 10 µM (SK-MEL-2): 115%; inhibition (MDA-MB 231 cells): 46 ± 1.41%; inhibition at 10 µM (LOX IMVI): 101%; melting point: 245 to 247 °C; inhibition at 10 µM (SNB-75): 94.1%; inhibition at 10 µM (MALME-3M): 99.8%; inhibition at 10 µM (SK-MEL-28): 107%; inhibition at 10 µM (U251): 103%
3 | O=C(c1nc2ccccc2[nH]1)[C@H]1[C@H](c2cccc(O)c2)C2CSCN2[C@]12C(=O)Nc1ccccc12 (stereo partly drawn) [Compound 6h, (3S,6′R)-6'-(1H-Benzo [d]imidazole-2-carbonyl)-7'-(3-hydroxyphenyl)-3′,6′,7′,7a′-tetrahydro-1′H-spiro [indoline-3.5′-pyrrolo [1,2-c]thiazol]-2-one] | 96.6% | 93.7% | 97.1% | 92.5% | 98.3% | 79.1% | 93.5% | 96.4% | 90% | 84.1% | 40.4 ± 1.25% | 101% | 91.2% | 101% | 105% | 83.9% | 82.1% | 94.8% | 97% | 80.4% | inhibition at 10 µM (ACHN): 92.8%; inhibition at 10 µM (A549/ATCC): 95.4%; inhibition at 10 µM (CCRF-CEM): 108%; inhibition at 10 µM (RXF 393): 104%; inhibition at 10 µM (HCT-116): 89%; inhibition at 10 µM (HL-60(TB)): 104%; inhibition at 10 µM (SW-620): 91.8%; inhibition at 10 µM (SNB-19): 97.8%; inhibition at 10 µM (TK-10): 113%; inhibition at 10 µM (T-47D): 76.3%; inhibition at 10 µM (DU-145): 105%; inhibition at 10 µM (SK-MEL-2): 102%; IC50 (MDA-MB 231 cells): 5.44 ± 0.167 µM; inhibition (MDA-MB 231 cells): 40.2%; inhibition at 10 µM (LOX IMVI): 84.3%; melting point: 205 to 207 °C; inhibition at 10 µM (SNB-75): 74.5%; inhibition at 10 µM (MALME-3M): 96.8%; inhibition at 10 µM (SK-MEL-28): 95.3%; inhibition at 10 µM (U251): 98.9%
